Active and inactive are the calls of the source. The rule behind the calls is not given here.
Columns and labels:
SK-HEP1 [1] = assay: Antiproliferative activity against human SK-HEP1 cells assessed as increase in miR-106b-5p level at 20 uM by qRT-PCR analysis; assay type: functional, cell-based
SK-HEP1 [2] = assay: Antiproliferative activity against human SK-HEP1 cells assessed as increase in miR-21-5p level at 20 uM by qRT-PCR analysis; assay type: functional, cell-based
MHCC97 = assay: Antitumor activity in human MHCC97 cells xenografted in SCID mouse assessed as suppression of tumor growth at 40 mg/kg, ip administered once every 3 day for 30 days by bioluminescence analysis; assay type: functional, organism-based; settings: time 30.0 day
[3] = target: MAP kinase p38 (Homo sapiens) (UniProt O15264+Q15759+Q16539+P53778); assay: Inhibition of p38 phosphorylation in human SK-HEP1 cells at 30 uM by Western blot analysis; assay type: cell-based
[4] = target: T1, Inhibitor of nuclear factor kappa-B kinase subunit beta (Homo sapiens) (UniProt O14920); assay: Inhibition of IkappaB phosphorylation in human SK-HEP1 cells at 30 uM by Western blot analysis; assay type: cell-based
T1 sequence (whole entry): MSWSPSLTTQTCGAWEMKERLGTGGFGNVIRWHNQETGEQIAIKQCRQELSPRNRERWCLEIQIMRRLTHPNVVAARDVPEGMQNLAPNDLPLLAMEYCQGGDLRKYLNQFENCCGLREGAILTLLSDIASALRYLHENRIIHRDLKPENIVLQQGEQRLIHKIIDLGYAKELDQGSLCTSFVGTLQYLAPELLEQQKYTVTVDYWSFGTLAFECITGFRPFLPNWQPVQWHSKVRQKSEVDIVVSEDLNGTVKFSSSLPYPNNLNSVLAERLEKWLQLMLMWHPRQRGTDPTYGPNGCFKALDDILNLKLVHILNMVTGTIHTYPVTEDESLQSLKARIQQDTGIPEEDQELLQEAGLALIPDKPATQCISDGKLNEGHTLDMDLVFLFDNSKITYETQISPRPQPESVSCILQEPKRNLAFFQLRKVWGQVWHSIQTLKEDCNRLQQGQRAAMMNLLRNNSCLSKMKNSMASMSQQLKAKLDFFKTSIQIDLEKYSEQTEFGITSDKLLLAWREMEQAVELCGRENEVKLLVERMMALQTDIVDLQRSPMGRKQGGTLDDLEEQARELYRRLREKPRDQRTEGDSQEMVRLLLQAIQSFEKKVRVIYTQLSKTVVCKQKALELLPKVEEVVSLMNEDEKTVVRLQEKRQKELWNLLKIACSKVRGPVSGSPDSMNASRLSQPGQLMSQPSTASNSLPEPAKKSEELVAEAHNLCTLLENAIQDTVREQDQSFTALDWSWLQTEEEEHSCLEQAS

Huh-7 = assay: Antiproliferative activity against human Huh-7 cells at 25 uM incubated for 24 hrs by alamar blue assay; assay type: functional, cell-based

**Q.** Which Activity (SK-HEP1 [1]) does the source give for `COc1cc2c(c(O)c1OC)-c1c(cc3c(c1OC)OCO3)C[C@H](C)[C@H](C)C2` here?
**A.** Active

**Q.** What about the Activity (SK-HEP1 [2]) of the same molecule?
**A.** Active

**Q.** What about the Activity (MHCC97) of the same molecule?
**A.** Active

**Q.** And the inhibition [3]?
**A.** inactive

**Q.** And the inhibition [4]?
**A.** Active

**Q.** And the Activity (Huh-7)?
**A.** Active
